What was measured:
Assay type in all cases: cell-based
SULT1A1Rno = biological target: T1, SULT1A1Rno (Rattus norvegicus, UniProt P17988); assay: HPLC of supernatant of E. coli expressing the enzyme; product zosteric acid matched synthetic standard; settings: intracellular PAPS as donor; 100 µM substrate in screen; M9, 37 °C, 24 h
T1 construct: gene Sult1a1; codon-optimized synthetic gene in pETDuet-1, expressed in E. coli KRX or BL21(DE3) (also in S. cerevisiae); whole growing cells

TALRca = biological target: T2, TALRca (Rhodobacter capsulatus, UniProt D5AR26); assay: HPLC of p-coumaric and zosteric acid in culture of E. coli co-expressing TAL and SULT1A1; settings: with or without 2 mM tyrosine; M9, 0.2% glucose, 24 h
T2 construct: gene hutH; co-expressed with rat SULT1A1 in E. coli BL21(DE3); whole growing cells
T2 sequence (D5AR26 1-531): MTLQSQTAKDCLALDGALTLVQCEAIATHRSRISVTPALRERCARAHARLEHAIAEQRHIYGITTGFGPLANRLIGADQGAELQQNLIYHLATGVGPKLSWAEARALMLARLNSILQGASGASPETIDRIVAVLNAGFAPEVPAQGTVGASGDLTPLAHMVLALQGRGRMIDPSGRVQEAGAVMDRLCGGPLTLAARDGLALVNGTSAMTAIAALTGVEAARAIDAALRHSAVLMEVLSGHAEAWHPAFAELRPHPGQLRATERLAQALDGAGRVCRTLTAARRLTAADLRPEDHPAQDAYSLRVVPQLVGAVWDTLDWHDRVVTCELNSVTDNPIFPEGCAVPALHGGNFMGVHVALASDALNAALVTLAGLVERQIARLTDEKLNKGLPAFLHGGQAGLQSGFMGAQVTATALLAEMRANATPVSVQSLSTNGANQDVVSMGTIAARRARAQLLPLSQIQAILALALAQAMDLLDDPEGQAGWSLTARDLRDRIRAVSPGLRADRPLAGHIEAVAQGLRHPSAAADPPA

TALFjo = biological target: T3, TALFjo (Flavobacterium johnsoniae, UniProt A5FKY3); assay: as above; settings: with or without 2 mM tyrosine; M9, 0.2% glucose, 24 h
T3 construct: gene Fjoh_1109; co-expressed with rat SULT1A1 in E. coli BL21(DE3) (also in S. cerevisiae); whole growing cells
T3 sequence (A5FKY3 1-506): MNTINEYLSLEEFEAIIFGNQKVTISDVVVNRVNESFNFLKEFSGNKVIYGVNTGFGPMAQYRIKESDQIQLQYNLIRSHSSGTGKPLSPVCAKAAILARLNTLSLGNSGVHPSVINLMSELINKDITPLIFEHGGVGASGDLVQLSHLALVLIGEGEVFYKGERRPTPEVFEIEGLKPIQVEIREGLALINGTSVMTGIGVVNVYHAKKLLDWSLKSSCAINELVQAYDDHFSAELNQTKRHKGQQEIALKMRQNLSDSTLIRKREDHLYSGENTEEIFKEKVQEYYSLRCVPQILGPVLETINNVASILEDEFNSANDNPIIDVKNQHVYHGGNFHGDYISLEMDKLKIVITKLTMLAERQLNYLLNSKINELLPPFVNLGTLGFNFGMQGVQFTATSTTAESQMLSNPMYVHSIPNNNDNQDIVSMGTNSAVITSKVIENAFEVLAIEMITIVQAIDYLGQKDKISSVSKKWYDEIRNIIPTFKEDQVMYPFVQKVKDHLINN

TALRsp = biological target: T4, TALRsp (Cereibacter sphaeroides, UniProt Q3IWB0); assay: as above; settings: with or without 2 mM tyrosine; M9, 0.2% glucose, 24 h
T4 construct: gene hutH; co-expressed with rat SULT1A1 in E. coli BL21(DE3); whole growing cells
T4 sequence (Q3IWB0 1-523): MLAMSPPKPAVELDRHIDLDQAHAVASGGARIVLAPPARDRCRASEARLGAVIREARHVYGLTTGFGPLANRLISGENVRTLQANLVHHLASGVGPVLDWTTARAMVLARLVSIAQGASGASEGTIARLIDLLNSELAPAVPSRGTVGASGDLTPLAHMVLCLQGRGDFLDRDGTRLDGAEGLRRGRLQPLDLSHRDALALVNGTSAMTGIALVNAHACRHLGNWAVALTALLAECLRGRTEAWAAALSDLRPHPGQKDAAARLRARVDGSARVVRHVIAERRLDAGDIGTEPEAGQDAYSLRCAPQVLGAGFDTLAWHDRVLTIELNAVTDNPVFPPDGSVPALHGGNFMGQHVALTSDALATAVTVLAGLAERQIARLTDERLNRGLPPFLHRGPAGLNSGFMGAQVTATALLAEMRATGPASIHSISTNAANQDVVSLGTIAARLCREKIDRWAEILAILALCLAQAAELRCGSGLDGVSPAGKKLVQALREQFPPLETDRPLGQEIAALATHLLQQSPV

T1 sequence (P17988 whole entry): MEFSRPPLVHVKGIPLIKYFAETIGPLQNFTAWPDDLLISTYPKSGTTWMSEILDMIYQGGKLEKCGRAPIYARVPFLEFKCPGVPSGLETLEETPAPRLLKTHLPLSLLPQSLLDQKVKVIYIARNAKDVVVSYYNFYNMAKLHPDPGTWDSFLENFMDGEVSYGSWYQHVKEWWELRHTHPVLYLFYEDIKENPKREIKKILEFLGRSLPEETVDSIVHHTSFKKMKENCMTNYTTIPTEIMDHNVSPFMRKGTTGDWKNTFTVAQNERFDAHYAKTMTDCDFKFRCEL

O=C(O)/C=C/c1ccc(O)cc1 [p-coumaric acid]
HPLC of supernatant of E. coli expressing the enzyme; product zosteric acid matc (SULT1A1Rno): SULT1A1Rno showed the greatest production of zosteric acid from p-coumaric acid

N[C@@H](Cc1ccc(O)cc1)C(=O)O [tyrosine]
HPLC of p-coumaric and zosteric acid in culture of E. coli co-expressing TAL and (TALRca): expression of a TAL-encoding gene was required for the production of pHCA | HPLC of p-coumaric and zosteric acid in culture of E. coli co-expressing TAL and (TALFjo): expression of a TAL-encoding gene was required for the production of pHCA | HPLC of p-coumaric and zosteric acid in culture of E. coli co-expressing TAL and (TALRsp): expression of a TAL-encoding gene was required for the production of pHCA

From publication PMC6731281, “Production of zosteric acid and other sulfated phenolic biochemicals in microbial cell factories” (Nature Communications, 2019)
